The text below walks through data of article PMC8224385, “X-ray screening identifies active site and allosteric inhibitors of SARS-CoV-2 main protease” (Science (New York, N.y.), 2021).

Where a name gives a salt, the structure may show the parent alone. Read-outs that look alike come from different tables or passages of the source. Where only a bound is given, the exact number is not on record here.

One series concerns SARS-CoV-2. Briefly: microbe, parasite or virus in culture. The format is cell-based. Particulars: for reduction in infectious particles / antiviral activity (in words): SARS-CoV-2, Vero E6 cells; for reduction in infectious particles: compounds considered antivirally active.
A further series is described as follows: in vitro. Particulars: African green monkey.
Series [1] can be described thus: Cell viability of Vero E6 cells (CCK-8 method). Particulars: African green monkey. (Tetrazolium assays rely on reduction of a dye to a coloured formazan, in cell work by metabolically active cells.)
[2] abbreviates: Severe acute respiratory syndrome coronavirus 2, Vero C1008, read-out: EC50 for the viral titer reduction.
Where [3] appears, read: Severe acute respiratory syndrome coronavirus 2, Vero C1008, SARS-CoV-2 infectious particles, Vero E6 cells, immunofocus assay, read-out: EC50 for the viral titer reduction.

One may read the EC50 as the concentration that produces a half-maximal response. On to `O=C(NC1CCNCC1)c1n[nH]cc1NC(=O)c1c(Cl)cccc1Cl` [AT7519, N-(4-piperidinyl)-4-(2,6-dichlorobenzoylamino)-1H-pyrazole-3-carboxamide], for which, in the series on SARS-CoV-2, the “reduction in infectious particles” value was ≥ 100 fold. Besides, the EC50 in the series on SARS-CoV-2 (setting [2]) was found to be 25.2 µM.
Regarding `O=C1c2ccccc2CCC1CNCCc1ccc(O)cc1` (stereo not drawn) [HEAT, 2-[β-(4-hydroxyphenyl)-ethylaminomethyl]-tetralone], in the series “in vitro”, the CC50 is 55.4 µM. Besides, in the series on SARS-CoV-2 (setting [3]), the EC50 was 24.1 µM.
As to `CCc1cc(O)c(Oc2ccc(C(N)=O)cc2F)cc1F` [MUT056399], the CC50 in “in vitro” was > 100 µM. For the same compound, in the series with SARS-CoV-2, the “reduction in infectious particles” value is recorded as ≥ 100 fold. Moreover, the EC50 in the series on SARS-CoV-2 (setting [3]) was determined as 38.2 µM.
With `O=C1Nc2ccccc2C2(CCN(CCc3ccc(C(F)(F)F)cc3)CC2)O1` [RS-102895], the CC50 in series [1] stood at 55 µM. For the same compound, the EC50 in the series on SARS-CoV-2 (setting [2]) stood at 19.8 µM.
As to `CCCC[C@@H](C=O)NC(=O)[C@H](CC(C)C)NC(=O)OCc1ccccc1` [calpeptin], the CC50 in series [1] was > 100 µM. For the same compound, the “reduction in infectious particles” value with SARS-CoV-2 is listed as ≥ 100 fold.
As for `CC(C(O)c1ccc(O)cc1)N1CCC(Cc2ccccc2)CC1` (centres unmarked) [ifenprodil], in series [1], the CC50 was > 100 µM. The “reduction in infectious particles” value in the series with SARS-CoV-2 was ≥ 100 fold. In the series with SARS-CoV-2 (setting [3]), the EC50 was determined as 46.9 µM.
With `CC(C)c1ccc2c(c1)C(N1CCN(CCO)CC1)Cc1ccc(F)cc1S2` (centres unmarked) [isofloxythepin], the CC50 in “in vitro” came out at 17 µM. Further, in the series on SARS-CoV-2 (setting [3]), the EC50 worked out at 4.8 µM.
For `CCOc1cc2ncc(C#N)c(Nc3ccc(F)c(Cl)c3)c2cc1NC(=O)/C=C/CN(C)C` [pelitinib], the CC50 in the series “in vitro” is 14 µM. Also, the “reduction in infectious particles” value with SARS-CoV-2 was ≥ 100 fold. For the same compound, the EC50 with SARS-CoV-2 (setting [3]) stood at 1.25 µM.
With `c1ccc2nc(N3CCNCC3)ccc2c1` [quipazine maleate], the CC50 in the series “in vitro” is > 100 µM. Moreover, the EC50 with SARS-CoV-2 (setting [3]) stood at 31.6 µM.
For `CCc1ccc(Cc2ccc3c(c2)[C@]2(OC3)O[C@H](CO)[C@@H](O)[C@H](O)[C@H]2O)cc1` [tofogliflozin], the “antiviral activity (in words)” value in the series on SARS-CoV-2 is “inactive”.
Take `Cc1ccc(C(=O)C(C)CN2CCCCC2)cc1` (centres unmarked) [tolperisone]: the CC50 in “in vitro” was > 100 µM. Besides, in the series with SARS-CoV-2, the “reduction in infectious particles” value is recorded as ≥ 100 fold. Further, the EC50 with SARS-CoV-2 (setting [3]) worked out at 19.2 µM.
`O=c1n(CC2CO2)c(=O)n(CC2CO2)c(=O)n1CC1CO1` (centres unmarked) [triglycidyl isocyanurate]: the CC50 in series [1] is > 100 µM. The “reduction in infectious particles” value in the series with SARS-CoV-2 is on record as ≥ 100 fold. Further, the EC50 in the series with SARS-CoV-2 (setting [3]) was 30 µM.
With PD-168568, the “antiviral activity (in words)” value in the series on SARS-CoV-2 is “inactive”.
